Measurements from patent US12297188B2, “Crystalline forms of (S)-1-(1-acryloylpyrrolidin-3-yl)-3-((3,5-dimethoxyphenyl)ethynyl)-5-(methylamino)-1H-pyrazole-4-carboxamide” (Beijing InnoCare Pharma Tech Co., Ltd., priority 2019, dated 2025).
≈ marks a conversion by molar mass, not a printed value. Entries after “also recorded” stand apart in the source; their conditions may differ.

How the values were obtained:
[1] = tested on: fibroblast growth factor receptor (FGFR); conditions: cited from earlier work
[2] = Equilibrium solubility in water; type: physicochemical; conditions: for solubility classification: water, room temperature, 24 hours
[3] = Stability assessment on storage (XRPD and HPLC purity); type: physicochemical; conditions: for XRPD change after storage / purity change after storage / stability after storage: 25° C./60% RH and 40° C./75% RH (opened) one week
Procedure: About 10 mg Form A of Compound I was added to each 1.5-mL glass vial and stored at (i) 80° C. (closed) for one day, or (ii) 25° C./60% RH and 40° C./75% RH (opened) for one week, and then analyzed for XRPD and HPLC purity.
About 10 mg Form C of Compound I was added to each 1.5-mL glass vial and stored under 25° C./60% RH (FIG. 13) and 40° C./75% RH (opened, FIG. 14) for one week, and then analyzed for XRPD and HPLC purity.

[4] = Hygroscopicity assessment by DVS; type: physicochemical; conditions: for hygroscopicity / water uptake: DVS; for XRPD before and after DVS testing: DVS 0% RH-95% RH; for water uptake: 80% RH, 25° C.
Procedure: (§1) X-ray powder diffraction (XRPD) studies in the present disclosure were performed using a Bruker D8 ADVANCE X-ray powder diffractometer. The parameters of the XRPD method of Compound I were as follows: • X-ray reflection: Cu, Kα • Kα1 (Å): 1.540598; Kα2 (Å): 1.544426 • Kα2/Kα1 intensity ratio: 0.50 • Voltage: 40 kV • Current: 40 mA • Scanning range: from 3.0 to 40.0 degree • Differential scanning calorimetry (DSC) data in the present disclosure were acquired by a TA DSC250. The parameters of the DSC method of Compound I were as follows: • Heating rate: 10° C./min • Purging gas: nitrogen • Thermogravimetric analysis (TGA) data in the present disclosure were acquired by a TA TGA550. The parameters of the TGA method of Compound I were as follows: • Heating rate: 10° C./min • Purging gas: nitrogen • Dynamic vapor sorption (DVS) data in the present disclosure were acquired by a SMS Intrinsic DVS. The parameters of the DVS method of Compound I were as follows: • Temperature: 25° C. • Gas and flow rate: nitrogen, 200 mL/min • dm/dt: 0.002%/min • Relative humidity (RH) range: 0% RH-95% RH
About 30 mg Form A of Compound I was assessed for hygroscopicity using a DVS analyzer, and tested by XRPD before and after DVS analysis. DVS is a gravimetric technique that measures how quickly and how much of a solvent is absorbed by a sample.
About 30 mg Form C of Compound I was assessed for hygroscopicity using a DVS analyzer, and tested by XRPD before and after DVS analysis.

[5] = Thermogravimetric analysis (thermal stability); type: physicochemical
Procedure: TGA is a method of thermal analysis in which the mass of a sample is measured over time as the temperature changes. TGA evaluates the thermal stability of a material.
as §1

[6] = Interconversion of Forms A-C (heating and slurry competition); type: physicochemical; conditions: for form obtained from slurry competition: equal amounts of Form A and B, isopropyl alcohol/water, aw=0~1, room temperature
Source text: The relationships among Forms A-C were investigated via heating and slurry competition experiments.

[7] = 25° C./60% RH for 1 week (opened)
[8] = 40° C./75% RH for 1 week (opened)

Structure (SMILES) | solubility classification [2] | Purity (%) [3, 7] [%] | Purity (%) [3, 8] [%] | Purity (%) ([3]; Day 0) | hygroscopicity [4] | XRPD before and after DVS testing [4] | water uptake [4] [%] | weight loss (TGA) ([5]; heated to 180° C.) | form obtained from slurry competition [6] | further results
C=CC(=O)N1CC[C@H](n2nc(C#Cc3cc(OC)cc(OC)c3)c(C(N)=O)c2NC)C1 [Compound I, (S)-1-(1-acryloylpyrrolidin-3-yl)-3-((3,5-dimethoxyphenyl)ethynyl)-5-(methylamino)-1H-pyrazole-4-carboxamide] | – | – | – | – | – | – | – | – | – | FGFR inhibition [1]: potent inhibitor
C=CC(=O)N1CC[C@H](n2nc(C#Cc3cc(OC)cc(OC)c3)c(C(N)=O)c2NC)C1 [Form A, (S)-1-(1-acryloylpyrrolidin-3-yl)-3-((3,5-dimethoxyphenyl)ethynyl)-5-(methylamino)-1H-pyrazole-4-carboxamide] | almost insoluble or insoluble | 99.78 | 99.76 | 99.75 | not hygroscopic | did not change | 0.14 | about 0.02% | gave Form A | XRPD change after storage ([3]; 80° C. (closed) one day): little or no change; purity change after storage ([3]; 80° C. (closed) one day): no purity change; stability after storage ([3]; 80° C. (closed) one day): stable; Purity (%) ([3]; 80° C. for 1 day (closed)): 99.77%; thermal stability ([5]; TGA, heated to 180° C.): thermally stable; thermodynamic stability ([6]; room temperature, versus Form B and C): better thermodynamic stability
C=CC(=O)N1CC[C@H](n2nc(C#Cc3cc(OC)cc(OC)c3)c(C(N)=O)c2NC)C1 [Form B, (S)-1-(1-acryloylpyrrolidin-3-yl)-3-((3,5-dimethoxyphenyl)ethynyl)-5-(methylamino)-1H-pyrazole-4-carboxamide] | – | – | – | – | – | – | – | – | gave Form A | solubility thermodynamic ([2]; thermodynamic from solid, conditions not stated): 15.1 µg/mL (≈ 35.8 µM); chemical stability [3]: chemically stable; physical stability ([3]; can be converted to Form A or Form C): not physically stable; weight loss by TGA ([5]; temperature not stated): about 2.42%
C=CC(=O)N1CC[C@H](n2nc(C#Cc3cc(OC)cc(OC)c3)c(C(N)=O)c2NC)C1 [Form C, (S)-1-(1-acryloylpyrrolidin-3-yl)-3-((3,5-dimethoxyphenyl)ethynyl)-5-(methylamino)-1H-pyrazole-4-carboxamide] | almost insoluble or insoluble | 96.91 | 96.99 | 96.83 | moderately hygroscopic; also recorded: moderately hydgroscopic | did not change | 5.44 | about 2.40% | – | solubility ([2]; after equilibrium in water at room temperature for 24 hours): 15.93 µg/mL (≈ 37.6 µM); XRPD change after storage [3]: little or no change; purity change after storage [3]: no significant purity change; stability after storage [3]: stable; form conversion on heating ([6]; heating to 145° C. and subsequently cooling to room temperature): converted to Form A
